Test results as given in patent publication US20080009418A1, “Selective Inhibitors” (Alchemia LTD., priority 2004, published 2008).

Experiments:
Conditions in all cases: compound at 10 μM
Human δ-opioid (DOP) = molecular target: T1, Human δ-opioid (DOP) (Homo sapiens, UniProt P41143); assay: Radioligand binding, human δ-opioid (DOP) membranes, FlashPlate, [3H]-Bremazocine
T1 construct: purchased Perkin Elmer Biosignal
In short: (§1)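 Cloned human receptor membranes were coated onto FlashPlate wells and incubated with radioligand and compound (added from a 0.5 mM DMSO daughter plate) for 1 hour at room temperature in the dark. Scintillation counting gave percent inhibition, with DMSO defining total and reference ligand defining non-specific binding.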

Human κ-Opioid (KOP) = molecular target: T2, Human κ-Opioid (KOP) (Homo sapiens, UniProt P41145); assay: Radioligand binding, human κ-opioid (KOP) membranes, filtration, [3H]-Diprenorphine
T2 construct: purchased Perkin Elmer Biosignal
In short: (§2)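 Filtration binding on cloned human receptor membranes (1 Unit/well), [125I]-Substance P for NK1 and [3H]-Diprenorphine for KOP, 1 h at room temperature. Filters PEI-presoaked, washed with cold 50 mM Tris-HCl pH 7.4, counted by scintillation; percent inhibition calculated, reference ligand defining non-specific binding.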

Human Melanocortin (MC3) = molecular target: T3, Human Melanocortin (MC3) (Homo sapiens, UniProt P41968); assay: Radioligand binding, human melanocortin MC3 membranes, FlashPlate, [125I]-NDP-αMSH
T3 construct: purchased Perkin Elmer Biosignal
In short: as §1

Human Melanocortin (MC4) = molecular target: T4, Human Melanocortin (MC4) (Homo sapiens, UniProt P32245); assay: Radioligand binding, human melanocortin MC4 membranes, FlashPlate, [125I]-NDP-αMSH
T4 construct: purchased Perkin Elmer Biosignal
In short: as §1

Human melanocortin (MC5) = molecular target: T5, Human melanocortin (MC5) (Homo sapiens, UniProt P33032); assay: Radioligand binding, human melanocortin MC5 membranes, FlashPlate, [125I]-NDP-αMSH
T5 construct: purchased Perkin Elmer Biosignal
In short: as §1

[1] = molecular target: T6, Human melanin-concentrating hormone (MCH1) (Homo sapiens, UniProt Q99705); assay: Radioligand binding, human melanin-concentrating hormone MCH1 membranes, FlashPlate, [125I]-S36057
T6 construct: purchased Perkin Elmer Biosignal
In short: as §1

Human μ-opioid (MOP) = molecular target: T7, Human μ-opioid (MOP) (Homo sapiens, UniProt P35372); assay: Radioligand binding, human μ-opioid (MOP) membranes, FlashPlate, [3H]-Naloxone
T7 construct: purchased Perkin Elmer Biosignal
In short: as §1

Human neurokinin (NK1) = molecular target: T8, Human neurokinin (NK1) (Homo sapiens, UniProt P25103); assay: Radioligand binding, human neurokinin NK1 membranes, filtration, [125I]-Substance P
T8 construct: purchased Perkin Elmer Biosignal
In short: as §2

[2] = molecular target: T9, Human neuropeptide Y (NPY-Y1) (Homo sapiens, UniProt P25929); assay: Radioligand binding, human neuropeptide Y NPY-Y1 membranes, FlashPlate, [125I]-PYY
T9 construct: purchased Perkin Elmer Biosignal
T9 sequence (P25929 1-384): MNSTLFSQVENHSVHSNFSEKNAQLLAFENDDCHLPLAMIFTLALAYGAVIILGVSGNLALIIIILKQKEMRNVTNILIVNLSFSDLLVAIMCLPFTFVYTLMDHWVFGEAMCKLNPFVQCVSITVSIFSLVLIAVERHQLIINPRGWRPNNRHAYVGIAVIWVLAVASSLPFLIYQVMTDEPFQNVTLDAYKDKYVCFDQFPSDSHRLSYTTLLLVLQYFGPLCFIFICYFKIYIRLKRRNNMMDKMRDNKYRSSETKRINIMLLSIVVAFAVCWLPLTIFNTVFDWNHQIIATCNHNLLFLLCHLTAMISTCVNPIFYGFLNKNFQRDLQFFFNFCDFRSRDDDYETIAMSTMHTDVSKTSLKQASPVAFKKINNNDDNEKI
In short: as §1

Human opioid (ORL1) = molecular target: T10, Human opioid (ORL1) (Homo sapiens, UniProt P41146); assay: Radioligand binding, human opioid ORL1 membranes, FlashPlate, [125I]-Nociceptin
T10 construct: purchased Perkin Elmer Biosignal
In short: as §1

Mouse urotensin (mUR2) = molecular target: T11, Mouse urotensin (mUR2) (Mus musculus, UniProt Q8VIH9); assay: Radioligand binding, mouse urotensin mUR2 membranes, FlashPlate, [125I]-Urotensin II
T11 construct: purchased Perkin Elmer Biosignal
T11 sequence (Q8VIH9 1-385): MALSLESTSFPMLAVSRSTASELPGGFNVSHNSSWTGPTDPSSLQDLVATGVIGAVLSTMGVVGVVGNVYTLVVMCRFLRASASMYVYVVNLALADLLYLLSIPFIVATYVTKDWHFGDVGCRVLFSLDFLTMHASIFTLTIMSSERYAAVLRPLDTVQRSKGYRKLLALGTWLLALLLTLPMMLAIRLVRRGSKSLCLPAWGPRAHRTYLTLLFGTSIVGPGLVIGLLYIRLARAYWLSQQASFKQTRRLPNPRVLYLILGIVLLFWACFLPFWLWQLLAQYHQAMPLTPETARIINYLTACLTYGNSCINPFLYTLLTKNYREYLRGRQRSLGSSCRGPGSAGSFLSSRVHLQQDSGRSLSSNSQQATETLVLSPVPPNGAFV
In short: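 Cloned mouse urotensin (mUR2) receptor membranes from Perkin Elmer Biosignal were immobilized in FlashPlate microplates using a proprietary coating. Each well got 19.5 μl buffer, then 0.5 μl of DMSO, reference ligand, or compound. Adding 5 μl of [125I]-Urotensin II, diluted to 5× final concentration in binding buffer, started binding. Plates were sealed with TopSeal-A and incubated 1 hour at room temperature in the dark. Wells were counted for 30 seconds each on a TopCount after a 60-second delay, and percentage inhibition was calculated.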

[3] = [3H]-Bremazocine, human DOP membranes
[4] = [3H]-Diprenorphine, human KOP membranes
[5] = [125I]-NDP-αMSH, human MC3 membranes, 10 µM
[6] = [125I]-NDP-αMSH, human MC4 membranes, 10 µM
[7] = [125I]-NDP-αMSH, human MC5 membranes
[8] = [3H]-Naloxone, human MOP membranes
[9] = [125I]-Substance P, human NK1 membranes
[10] = [125I]-PYY, human NPY-Y1 membranes
[11] = [125I]-Nociceptin, human ORL1 membranes
[12] = [125I]-Urotensin II, mouse mUR2 membranes

T4 sequence (P32245 whole entry): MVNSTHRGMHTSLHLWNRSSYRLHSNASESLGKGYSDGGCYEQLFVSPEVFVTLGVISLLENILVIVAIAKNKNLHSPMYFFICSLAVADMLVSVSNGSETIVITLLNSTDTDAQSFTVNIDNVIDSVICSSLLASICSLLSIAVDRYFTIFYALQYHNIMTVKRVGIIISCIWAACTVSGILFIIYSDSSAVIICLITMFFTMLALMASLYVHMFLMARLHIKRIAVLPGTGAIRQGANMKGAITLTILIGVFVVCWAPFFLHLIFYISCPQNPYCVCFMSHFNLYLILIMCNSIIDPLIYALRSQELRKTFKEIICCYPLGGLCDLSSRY
T5 sequence (P33032 whole entry): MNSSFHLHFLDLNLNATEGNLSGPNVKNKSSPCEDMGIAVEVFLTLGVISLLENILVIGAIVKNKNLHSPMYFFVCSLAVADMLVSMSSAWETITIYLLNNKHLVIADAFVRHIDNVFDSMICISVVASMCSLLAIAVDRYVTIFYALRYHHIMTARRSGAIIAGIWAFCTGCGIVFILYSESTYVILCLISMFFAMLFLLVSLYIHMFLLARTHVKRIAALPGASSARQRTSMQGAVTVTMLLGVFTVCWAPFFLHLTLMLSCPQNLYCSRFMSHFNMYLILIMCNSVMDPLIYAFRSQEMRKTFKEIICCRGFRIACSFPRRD
T3 sequence (P41968 whole entry): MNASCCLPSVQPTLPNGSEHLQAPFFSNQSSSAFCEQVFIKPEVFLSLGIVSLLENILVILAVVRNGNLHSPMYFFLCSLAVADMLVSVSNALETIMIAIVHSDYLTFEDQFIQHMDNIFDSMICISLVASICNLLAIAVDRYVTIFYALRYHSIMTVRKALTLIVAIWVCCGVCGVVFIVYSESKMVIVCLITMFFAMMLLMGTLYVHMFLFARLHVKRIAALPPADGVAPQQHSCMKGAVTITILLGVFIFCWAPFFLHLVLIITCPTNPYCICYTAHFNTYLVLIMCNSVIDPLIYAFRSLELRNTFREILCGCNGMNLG
T1 sequence (P41143 whole entry): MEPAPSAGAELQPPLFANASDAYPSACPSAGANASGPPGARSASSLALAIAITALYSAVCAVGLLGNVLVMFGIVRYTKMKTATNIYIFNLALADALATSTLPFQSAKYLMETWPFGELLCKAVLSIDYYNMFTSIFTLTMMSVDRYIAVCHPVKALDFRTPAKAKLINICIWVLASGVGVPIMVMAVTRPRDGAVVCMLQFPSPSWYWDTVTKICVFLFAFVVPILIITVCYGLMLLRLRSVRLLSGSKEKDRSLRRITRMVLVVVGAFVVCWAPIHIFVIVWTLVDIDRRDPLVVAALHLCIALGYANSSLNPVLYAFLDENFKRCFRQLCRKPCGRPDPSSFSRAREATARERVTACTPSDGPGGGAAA
T6 sequence (Q99705 whole entry): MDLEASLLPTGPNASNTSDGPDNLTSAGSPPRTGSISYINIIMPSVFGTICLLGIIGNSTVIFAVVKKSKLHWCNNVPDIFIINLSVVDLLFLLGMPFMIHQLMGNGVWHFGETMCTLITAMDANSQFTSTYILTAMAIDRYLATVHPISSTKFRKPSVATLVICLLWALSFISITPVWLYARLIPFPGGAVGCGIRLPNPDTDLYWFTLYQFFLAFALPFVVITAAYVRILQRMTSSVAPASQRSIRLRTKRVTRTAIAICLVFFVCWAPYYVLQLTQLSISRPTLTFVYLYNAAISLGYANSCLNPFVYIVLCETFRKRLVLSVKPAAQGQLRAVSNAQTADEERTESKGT
T8 sequence (P25103 whole entry): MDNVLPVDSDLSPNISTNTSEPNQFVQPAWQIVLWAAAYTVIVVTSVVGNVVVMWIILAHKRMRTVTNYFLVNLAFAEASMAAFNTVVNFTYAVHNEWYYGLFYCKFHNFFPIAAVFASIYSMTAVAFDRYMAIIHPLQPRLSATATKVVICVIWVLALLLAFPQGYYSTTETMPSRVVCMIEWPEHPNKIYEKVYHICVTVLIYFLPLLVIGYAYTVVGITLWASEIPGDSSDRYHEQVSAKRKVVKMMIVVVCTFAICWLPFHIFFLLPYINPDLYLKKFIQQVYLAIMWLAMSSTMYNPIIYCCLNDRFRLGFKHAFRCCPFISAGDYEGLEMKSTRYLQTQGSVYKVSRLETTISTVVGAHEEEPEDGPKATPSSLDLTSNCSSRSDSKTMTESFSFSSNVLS
T7 sequence (P35372 whole entry): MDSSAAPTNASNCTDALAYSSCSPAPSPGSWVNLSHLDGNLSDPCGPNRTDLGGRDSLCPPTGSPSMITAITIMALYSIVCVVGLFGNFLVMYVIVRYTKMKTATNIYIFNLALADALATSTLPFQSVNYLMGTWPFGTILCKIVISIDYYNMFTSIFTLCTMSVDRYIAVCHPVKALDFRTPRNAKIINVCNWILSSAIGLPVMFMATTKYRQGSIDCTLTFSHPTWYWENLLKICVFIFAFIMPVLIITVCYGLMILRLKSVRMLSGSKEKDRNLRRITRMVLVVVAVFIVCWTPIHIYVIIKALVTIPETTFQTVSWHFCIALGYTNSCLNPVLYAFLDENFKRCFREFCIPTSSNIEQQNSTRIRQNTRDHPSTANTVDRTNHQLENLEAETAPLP
T2 sequence (P41145 whole entry): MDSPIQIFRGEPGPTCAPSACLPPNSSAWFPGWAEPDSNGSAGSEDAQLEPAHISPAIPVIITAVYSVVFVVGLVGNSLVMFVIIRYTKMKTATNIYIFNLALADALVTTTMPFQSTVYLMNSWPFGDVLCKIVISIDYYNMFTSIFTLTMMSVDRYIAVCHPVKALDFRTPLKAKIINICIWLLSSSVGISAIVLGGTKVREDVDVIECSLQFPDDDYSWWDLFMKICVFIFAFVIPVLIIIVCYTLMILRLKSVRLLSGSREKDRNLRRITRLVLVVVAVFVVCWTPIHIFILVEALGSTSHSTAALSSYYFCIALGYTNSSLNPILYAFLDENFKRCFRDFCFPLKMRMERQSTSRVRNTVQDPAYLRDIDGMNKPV
T10 sequence (P41146 whole entry): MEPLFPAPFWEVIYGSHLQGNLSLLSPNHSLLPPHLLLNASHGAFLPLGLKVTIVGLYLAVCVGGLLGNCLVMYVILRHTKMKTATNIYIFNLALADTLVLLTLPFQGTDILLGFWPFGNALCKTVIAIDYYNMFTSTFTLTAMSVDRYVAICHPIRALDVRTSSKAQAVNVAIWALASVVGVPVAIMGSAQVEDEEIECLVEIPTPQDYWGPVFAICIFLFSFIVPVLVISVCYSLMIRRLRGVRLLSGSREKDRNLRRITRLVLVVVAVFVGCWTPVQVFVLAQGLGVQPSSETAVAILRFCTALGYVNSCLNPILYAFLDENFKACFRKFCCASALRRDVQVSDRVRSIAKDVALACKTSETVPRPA

Structure (SMILES): NCCC(=O)N[C@H]1C(OCc2ccc3ccccc3c2)O[C@H](COCc2ccc(Cl)cc2)[C@@H](O)[C@@H]1OCc1ccc(Cl)cc1 (stereo partly shown) [compound 441]
- A1: inhibition of radioligand binding (Human δ-opioid (DOP); [3]): − (“−” indicates less than 50% inhibition at 10 μM)
- A2: inhibition of radioligand binding (Human κ-Opioid (KOP); [4]): − (“−” indicates less than 50% inhibition at 10 μM)
- A3: inhibition of radioligand binding (Human Melanocortin (MC3); [5]): + (“+” indicates greater than 50% inhibition at 10 μM)
- A4: inhibition of radioligand binding (Human Melanocortin (MC4); [6]): + (“+” indicates greater than 50% inhibition at 10 μM)
- A5: inhibition of radioligand binding (Human melanocortin (MC5); [7]): + (“+” indicates greater than 50% inhibition at 10 μM)
- A6: inhibition of radioligand binding ([1]; [125I]-S36057, human MCH1 membranes): + (“+” indicates greater than 50% inhibition at 10 μM)
- A7: inhibition of radioligand binding (Human μ-opioid (MOP); [8]): − (“−” indicates less than 50% inhibition at 10 μM)
- A8: inhibition of radioligand binding (Human neurokinin (NK1); [9]): + (“+” indicates greater than 50% inhibition at 10 μM)
- A9: inhibition of radioligand binding [2, 10]: − (“−” indicates less than 50% inhibition at 10 μM)
- A10: inhibition of radioligand binding (Human opioid (ORL1); [11]): − (“−” indicates less than 50% inhibition at 10 μM)
- A11: inhibition of radioligand binding (Mouse urotensin (mUR2); [12]): − (“−” indicates less than 50% inhibition at 10 μM)

Structure (SMILES): COCC1OC(OCc2ccc3ccccc3c2)C(NC(=O)CN)C(OCc2ccc(Cl)cc2)C1O (stereo not shown) [compound 235]
- A1: inhibition of radioligand binding (Human δ-opioid (DOP); [3H]-Bremazocine, FlashPlate): + (“+” indicates greater than 50% inhibition at 10 μM)
- A2: inhibition of radioligand binding (Human κ-Opioid (KOP); [3H]-Diprenorphine, filtration): − (“−” indicates less than 50% inhibition at 10 μM)
- A3: inhibition of radioligand binding (Human Melanocortin (MC3); [125I]-NDP-αMSH, FlashPlate): − (“−” indicates less than 50% inhibition at 10 μM)
- A4: inhibition of radioligand binding (Human Melanocortin (MC4); [125I]-NDP-αMSH, FlashPlate): − (“−” indicates less than 50% inhibition at 10 μM)
- A5: inhibition of radioligand binding (Human melanocortin (MC5); [125I]-NDP-αMSH, FlashPlate): − (“−” indicates less than 50% inhibition at 10 μM)
- A6: inhibition of radioligand binding ([1]; [125I]-S36057, FlashPlate): − (“−” indicates less than 50% inhibition at 10 μM)
- A7: inhibition of radioligand binding (Human μ-opioid (MOP); [3H]-Naloxone, FlashPlate): − (“−” indicates less than 50% inhibition at 10 μM)
- A8: inhibition of radioligand binding (Human neurokinin (NK1); [125I]-Substance P, filtration): + (“+” indicates greater than 50% inhibition at 10 μM)
- A9: inhibition of radioligand binding ([2]; [125I]-PYY, FlashPlate): − (“−” indicates less than 50% inhibition at 10 μM)
- A10: inhibition of radioligand binding (Human opioid (ORL1); [125I]-Nociceptin, FlashPlate): − (“−” indicates less than 50% inhibition at 10 μM)
- A11: inhibition of radioligand binding (Mouse urotensin (mUR2); [125I]-Urotensin II, FlashPlate): − (“−” indicates less than 50% inhibition at 10 μM)

Structure (SMILES): NCCC(=O)N[C@H]1C(OCc2ccc3ccccc3c2)O[C@H](COCc2ccc(Cl)cc2)[C@@H](O)[C@@H]1OCc1ccc2ccccc2c1 (stereo partly shown) [compound 446]
- A1: inhibition of radioligand binding (Human δ-opioid (DOP); [3]): − (“−” indicates less than 50% inhibition at 10 μM)
- A2: inhibition of radioligand binding (Human κ-Opioid (KOP); [4]): − (“−” indicates less than 50% inhibition at 10 μM)
- A3: inhibition of radioligand binding (Human Melanocortin (MC3); [5]): − (“−” indicates less than 50% inhibition at 10 μM)
- A4: inhibition of radioligand binding (Human Melanocortin (MC4); [6]): − (“−” indicates less than 50% inhibition at 10 μM)
- A5: inhibition of radioligand binding (Human melanocortin (MC5); [7]): + (“+” indicates greater than 50% inhibition at 10 μM)
- A6: inhibition of radioligand binding ([1]; [125I]-S36057, human MCH1 membranes, 10 µM): − (“−” indicates less than 50% inhibition at 10 μM)
- A7: inhibition of radioligand binding (Human μ-opioid (MOP); [8]): − (“−” indicates less than 50% inhibition at 10 μM)
- A8: inhibition of radioligand binding (Human neurokinin (NK1); [9]): + (“+” indicates greater than 50% inhibition at 10 μM)
- A9: inhibition of radioligand binding [2, 10]: − (“−” indicates less than 50% inhibition at 10 μM)
- A10: inhibition of radioligand binding (Human opioid (ORL1); [11]): − (“−” indicates less than 50% inhibition at 10 μM)
- A11: inhibition of radioligand binding (Mouse urotensin (mUR2); [12]): − (“−” indicates less than 50% inhibition at 10 μM)

Structure (SMILES): CO[C@H]1[C@H](O)[C@@H](COCc2ccc3ccccc3c2)OC(OCc2ccc3ccccc3c2)[C@@H]1NC(=O)CCCNC(=N)N (stereo partly shown) [compound 73]
- A1 radioligand binding inhibition (Human δ-opioid (DOP); human δ-opioid (DOP) membranes): − (“−” indicates less than 50% inhibition at 10 μM)
- A2 radioligand binding inhibition (Human κ-Opioid (KOP); human κ-opioid (KOP) membranes): + (“+” indicates greater than 50% inhibition at 10 μM)
- A3 radioligand binding inhibition (Human Melanocortin (MC3); human melanocortin MC3 membranes): − (“−” indicates less than 50% inhibition at 10 μM)
- A4 radioligand binding inhibition (Human Melanocortin (MC4); human melanocortin MC4 membranes): − (“−” indicates less than 50% inhibition at 10 μM)
- A5 radioligand binding inhibition (Human melanocortin (MC5); human melanocortin MC5 membranes): + (“+” indicates greater than 50% inhibition at 10 μM)
- A6 radioligand binding inhibition ([1]; human MCH1 membranes): − (“−” indicates less than 50% inhibition at 10 μM)
- A7 radioligand binding inhibition (Human μ-opioid (MOP); human μ-opioid (MOP) membranes): + (“+” indicates greater than 50% inhibition at 10 μM)
- A8 radioligand binding inhibition (Human neurokinin (NK1); human neurokinin NK1 membranes): + (“+” indicates greater than 50% inhibition at 10 μM)
- A9 radioligand binding inhibition ([2]; human NPY-Y1 membranes): − (“−” indicates less than 50% inhibition at 10 μM)
- A10 radioligand binding inhibition (Human opioid (ORL1); human ORL1 membranes): + (“+” indicates greater than 50% inhibition at 10 μM)
- A11 radioligand binding inhibition (Mouse urotensin (mUR2); mouse urotensin mUR2 membranes): − (“−” indicates less than 50% inhibition at 10 μM)

Structure (SMILES): CSC1OC(COCc2cccc(N)c2)C(O)C(OCc2ccccc2)C1NC(=O)Cc1ccccc1 (stereo not shown) [compound 330]
- A1: inhibition of radioligand binding, human δ-opioid (DOP) (Human δ-opioid (DOP); [3H]-Bremazocine): − (“−” indicates less than 50% inhibition at 10 μM)
- A2: inhibition of radioligand binding, human κ-opioid (KOP) (Human κ-Opioid (KOP); [3H]-Diprenorphine): − (“−” indicates less than 50% inhibition at 10 μM)
- A3: inhibition of radioligand binding, human melanocortin (MC3) (Human Melanocortin (MC3); [125I]-NDP-αMSH): − (“−” indicates less than 50% inhibition at 10 μM)
- A4: inhibition of radioligand binding, human melanocortin (MC4) (Human Melanocortin (MC4); [125I]-NDP-αMSH): − (“−” indicates less than 50% inhibition at 10 μM)
- A5: inhibition of radioligand binding, human melanocortin (MC5) (Human melanocortin (MC5); [125I]-NDP-αMSH, 10 µM): − (“−” indicates less than 50% inhibition at 10 μM)
- A6: inhibition of radioligand binding, human melanin-concentrating hormone (MCH1) ([1]; [125I]-S36057): − (“−” indicates less than 50% inhibition at 10 μM)
- A7: inhibition of radioligand binding, human μ-opioid (MOP) (Human μ-opioid (MOP); [3H]-Naloxone): − (“−” indicates less than 50% inhibition at 10 μM)
- A8: inhibition of radioligand binding, human neurokinin (NK1) (Human neurokinin (NK1); [125I]-Substance P): + (“+” indicates greater than 50% inhibition at 10 μM)
- A9: inhibition of radioligand binding, human neuropeptide Y (NPY-Y1) ([2]; [125I]-PYY): − (“−” indicates less than 50% inhibition at 10 μM)
- A10: inhibition of radioligand binding, human opioid (ORL1) (Human opioid (ORL1); [125I]-Nociceptin): − (“−” indicates less than 50% inhibition at 10 μM)
- A11: inhibition of radioligand binding, mouse urotensin (mUR2) (Mouse urotensin (mUR2); [125I]-Urotensin II): − (“−” indicates less than 50% inhibition at 10 μM)
